Results: PMC9388906, “Dual inhibition of the Echinococcus multilocularis energy metabolism” (Frontiers in Veterinary Science, 2022)

Tests used:
Assay type in all cases: cell-based, Echinococcus multilocularis
[1] = tested on: E. multilocularis metacestodes; assay: Succinate concentrations in culture supernatants (malate dismutation activity); conditions: 10 μM, 5 days
Method: Both compounds were tested either alone or in combination at 10 μM with the above-described PGI assay for 5 days for their activity against E. multilocularis metacestodes. PGI assays were done in triplicates and two times independently. […] To assess direct effects on the MD, succinate levels were measured in the supernatants of the PGI assay, as described below. To determine whether differences between groups were significant, data was subjected to student's t-test analysis and P-values below 0.05 are given.
Succinate measurements in supernatants of drug-treated E. multilocularis metacestodes was performed with the “Succinic Acid Assay Kit” (Megazyme, Bray, Ireland). […] 20 μL of each diluted (1:20) sample or standard was used in triplicate for succinate measurements in 96-well plates (flat bottom, Greiner Bio-One GmbH, Frickenhausen, Germany). The reaction mix buffer was prepared as described in the supplier manual: per well 180 μL H2O, 20 μL solvent 1 (buffer, pH 8.4, sodium azide 0.02% w/v), 20 μL solvent 2 (NADH plus stabilizer), 20 μL solvent 3 (ATP, PEP, and CoA) and 2 μL solvent 4 (pyruvate kinase plus L-lactate dehydrogenase suspension) were added. After a 180 s pre-incubation time, a first measurement at 340 nm was done on an EnSpire multilabel plate reader (PerkinElmer Life Sciences, Schwerzenbach, Switzerland). 10 μL solvent 5 (succinyl-CoA synthetase suspension; 1:10 diluted) were then added to each well and the plate was read at 340 nm for 1 h every minute. […] Succinate levels are shown as mean values with standard deviations of biological triplicates. To determine whether differences between groups were significant, data was subjected to student's t-test analysis and P-values below 0.05 are given.

[2] = tested on: E. multilocularis metacestodes (isolate Sval); assay: PGI assay (damage marker release), metacestodes, isolate Sval; conditions: isolate Sval, 10 μM
Method: (§1) To assess the in vitro efficacy of ELQs against E. multilocularis, (a) the damage-marker phosphoglucose isomerase (PGI) assay was applied against metacestodes, and (b) the germinal layer (GL) cell viability assay was applied to measure effects on isolated GL cells. Both assays are described in more detail below. The drug testing strategy was as follows: PGI assay was first conducted for overview screening at 10 μM with the parasite isolates H95 and Sval. The GL cell viability assay was performed at 0.1 μM with both isolates H95 and Sval.
(§2) The PGI assay measures the amount of PGI that metacestodes release into the medium when damaged ([17], [32]). The purification and in vitro drug incubation of E. multilocularis metacestodes was conducted according to Stadelmann et al. ([32]). In short, cultures were applied for in vitro drug testing at the age of 6-8 weeks. E. multilocularis metacestodes were therefore purified by the addition of 2% saccharose and washed extensively with PBS. Purified metacestodes were suspended 1:3 with DMEM (without phenol red, supplemented with 100 U/mL penicillin, 100 μg/mL streptomycin) and distributed in 48-well plates (1 mL/well, thus 300 μL pure metacestode vesicles per well). […] The corresponding DMSO concentration was used as negative control and Tx-100 (0.1% final concentration) was used for total damage (positive control). […] After 5 days, relative PGI activities were measured and calculated as percentage of the Tx-100 control as described previously in Rufener et al. ([17]). They were calculated as mean values and standard deviations for each triplicate. […] EC50 measurements were performed twice, and averages and standard deviations of these repeated tests are given.

[3] = tested on: E. multilocularis metacestodes; assay: Transmission electron microscopy of treated metacestodes; conditions: 5 days
Method: E. multilocularis metacestodes treated with ELQ-400 (0.2, 1 and 2 μM, 5 days of incubation) under normoxic (37°C, 21% O2, 5% CO2, humid atmosphere) and anaerobic conditions (37°C, 80% N2, 10% CO2, and 10% H2, humid atmosphere) were processed for TEM as previously described ([17]). Metacestodes were washed in 100 mM sodium cacodylate buffer (pH 7.3), and were fixed in 2% glutaraldehyde in cacodylate buffer overnight at 4°C. Following several washes in cacodylate buffer, metacestodes were post-fixed in 2% osmium tetroxide in cacodylate buffer for 3–4 h, washed in water, and samples were treated with Uranyless™ solution (EMS, Hatfield, PA, USA) for 20 min, followed by several washes in distilled water. Specimens were dehydrated in a graded series of ethanol and were embedded in EPON-812 epoxy resin. Polymerization of the resin was carried out at 60°C for 24 h. Ultrathin sections were cut on a Reichert and Jung (Vienna) microtome, and were allowed to settle onto 400 mesh formvar carbon coated grids (Plano GmbH, Wetzlar, Germany). Specimens were contrasted with Uranyless and lead citrate, and were viewed on a FEI Morgagni Transmission Electron Microscope operating at 80 kV.

[4] = tested on: E. multilocularis GL cells (isolate H95); assay: GL cell viability assay (CellTiter-Glo), isolate H95; conditions: isolate H95; 0.1 μM; 5 days; nitrogen atmosphere; mean (SD); active if <30%
Method: as §1
The isolation of E. multilocularis GL cells was done as described previously ([17]) with minor modifications. Fifteen units of GL cells were distributed to each well of a 384 well plate in a total volume of 12.5 μL conditioned medium. The different ELQs were added to the wells to 0.1 μM, in quadruplicates. As a negative control 0.1% DMSO was used. The 384-well plate was incubated for 5 days at 37°C under humid nitrogen atmosphere. Thereafter, viability of the GL cells under different drug treatments was assessed by CellTiter-Glo® (Promega AG, Dübendorf, Switzerland). The CellTiter-Glo reagent was complemented with 1% Tx-100. The luciferase bioluminescence was measured at 530 nm by using the Enspire multilabel reader (PerkinElmer Life Sciences, Schwerzenbach, Switzerland). Using Microsoft Excel, the blank values were subtracted from the experimental values and the relative viability compared to DMSO was calculated. Viabilities were calculated as mean values and standard deviations for each quadruplicate.

[5] = tested on: E. multilocularis metacestodes (isolate H95); assay: PGI assay (damage marker release), metacestodes, isolate H95; conditions: isolate H95, 5 days
Method: as §1, §2

Cc1[nH]c2cc(F)cc(F)c2c(=O)c1-c1ccc(Oc2ccc(OC(F)(F)F)cc2)cc1 [ELQ-400]
Release of succinate by metacestodes compared to DMSO control ([1]; anaerobic): significantly enhanced | Release of succinate by metacestodes compared to DMSO control ([1]; normoxic): significantly enhanced | Metacestodes, PGI assay, relative to positive control Tx-100 ([2]; 5 days, normoxic, mean (SD) of triplicates, active if >20%): 27 (10.5) % | Activity in PGI assay (activity call) ([2]; threshold >20% of Tx-100): activity | Ultrastructural effects on metacestodes (TEM) ([3]; 0.2 μM, normoxic (21% O2)): did not show obvious ultrastructural alterations | Ultrastructural effects on metacestodes (TEM): overall structural organization, especially of the GL ([3]; 1 μM, normoxic (21% O2)): partially compromised | Ultrastructural effects on metacestodes (TEM) ([3]; 2 μM, normoxic (21% O2)): partial separation of the GL and the LL | Ultrastructural effects on metacestodes (TEM) ([3]; anaerobic conditions, compared with damage at 1 and 2 μM under normoxic conditions): did not exhibit such alterations | GL cells, viability via ATP measurements, relative to DMSO control [4]: 8.4 (4.8) % | Metacestodes, PGI assay, relative to positive control Tx-100 ([5]; 10 μM, normoxic, mean (SD) of triplicates, active if >20%): 21.4 (2.5) % | EC50 ([5]; PGI assay, range tested 30–0.12 μM, mean (SD) of two tests, read-out: EC50 metacestodes): 1060 nM
